Experimental data as given in patent publication US7442713B2, “2-thio-substituted imidazole derivatives and their use in pharmaceutics” (Merckle GmbH, priority 2002, dated 2008).
pIC50: −log10 of the molar value.

Columns and labels:
activated p38α = activated p38α (Homo sapiens, UniProt Q16539); assay: Kinase assay (p38α, ATF2 substrate, ELISA read-out); assay type: biochemical; conditions: Table 1; for pIC50: 100 μM ATP, 10 ng activated p38α, read-out: Kinase assay IC50
Description: At 37° C., microtiter plates were coated with 50 μl of ATF2 solution ([…]) for one hour. The plates were washed three times with water, and 50 μl of kinase mixture (50 mM tris-HCl, 10 mM MgCl2, 10 mM β-glycerol phosphate, 10 μg/ml BSA, 1 mM DTT, 100 μM ATP, 100 μM Na3VO4, 10 ng of activated p38α) with or without inhibitor were then added into the wells, and the plates were incubated at 37° C. for 1 hour. The plates were washed three times and then incubated at 37° C. with phosphorus-ATF-2 antibodies for one hour. Once more, the plates were washed three times, and goat-anti-rabbit IgG labeled with alkaline phosphatase was then added at 37° C. for one hour (to immobilize antibody-phosphorylated protein-substrate complex). After washing three times, the alkaline phosphatase-substrate solution (3 mM 4-NPP, 50 mM NaHCO3, 50 mM MgCl2, 100 μl/well) was added at 37° C. for 1.5 hours. The formation of 4-nitrophenolate was measured at 405 nm using a microtiter plate reader. The IC50 values were calculated.

TNFα = assay: In vitro test of cytokine release, LPS-stimulated human whole blood / PBMCs: TNFα; assay type: cell-based; conditions: LPS stimulation, ELISA; for pIC50: Homo sapiens, PBMC, read-out: Cytokines IC50 TNF α
Description: (§1) The compounds or compositions according to the invention can be administered to mammals (man or animal) in a dose of from about 0.5 mg to 100 mg per kg of body weight per day. They may be administered in one individual dose or in a plurality of doses. The activity spectrum of the compounds as inhibitors of cytokine release was examined using the test systems below, as described by C. Donat and S. Laufer in Arch. Pharm. Pharm. Med. Chem. 333, Suppl. 1, 1-40, 2000.
(§2) In vitro Test with Human Whole Blood
(§3) The test substance is added to samples of human potassium-EDTA whole blood (of 400 μl each) and the samples are preincubated in a CO2 incubator (5% CO2; 95% moisture-saturated air) at 37° C. for 15 min. The samples are then stimulated with 1 μg/ml of LPS (E. coli 026:B6) at 37° C. in a CO2 incubator (5% CO2; 95% moisture-saturated air) for 4 hours. The reaction is stopped by placing the samples on ice, adding DPBS buffer and then centrifuging at 1000*g for 15 min. The amount of IL-1β and TNFα in the plasma supernatant is then determined by ELISA.
(§4) 1) The mononuclear cells (PBMCs) from human potassium-EDTA whole blood, diluted 1:3, are isolated by density gradient centrifugation (Histopaque®-1.077). The cells are washed twice with DPBS buffer, resuspended in macrophage SFM medium and adjusted to a cell count of 1*10^6 cells/ml.
(§5) The resulting PBMCs suspension (samples of in each case 390 μl) and the test substance are preincubated at 37° C. in a CO2 incubator (5% CO2; 95% moisture-saturated air) for 15 min. The samples are then stimulated with in each case […] of LPS (E. coli 026:B6) at 37° C. in a CO2 incubator (5% CO2; 95% moisture-saturated air) for 4 hours. The reaction is stopped by placing the samples on ice, adding DPBS buffer and then centrifuging at 15 880*g for 12 min. The amount of IL-1β and TNFα in the plasma supernatant is then determined by ELISA.

IL-1β = assay: In vitro test of cytokine release, LPS-stimulated human whole blood / PBMCs: IL-1β; assay type: cell-based; conditions: PBMC, LPS stimulation, ELISA, read-out: Cytokines IC50 IL-1β
Description: as §1, §2, §3, §4, §5

Chain of activated p38α (Q16539 whole entry): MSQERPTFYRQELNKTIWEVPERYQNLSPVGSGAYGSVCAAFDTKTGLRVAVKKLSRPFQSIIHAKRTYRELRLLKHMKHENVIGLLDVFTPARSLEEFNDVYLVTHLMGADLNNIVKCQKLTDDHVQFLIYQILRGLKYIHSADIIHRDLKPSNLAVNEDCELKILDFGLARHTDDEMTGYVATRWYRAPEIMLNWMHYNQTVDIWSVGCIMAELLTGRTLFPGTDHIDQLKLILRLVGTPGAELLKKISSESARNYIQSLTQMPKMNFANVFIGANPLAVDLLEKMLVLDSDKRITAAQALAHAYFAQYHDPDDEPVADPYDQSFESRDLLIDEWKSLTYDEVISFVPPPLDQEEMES

| pIC50 (activated p38α) | pIC50 (TNFα) | pIC50 (IL-1β) | Kinase assay % at 10^−5 mol/l (activated p38α; at 10^−5 mol/l) [% at10^−5 mol/l] | SMILES | Cytokines TNF α % at 10^−5 mol/l (TNFα) [% at10^−5 mol/l] |
| --- | --- | --- | --- | --- | --- |
| 6.01 | 5.02 | 6.15 |  | CCOC(=O)CSc1nc(-c2ccc(F)cc2)c(-c2ccncc2)[nH]1 [Example 25e, Ethyl 5-(4-fluorophenyl)-4-(4-pyridinyl)imidazole-2-thio-2-acetate] |  |
|  | 5.52 | 6.82 | 29.0 | CN(C)C(=O)CSc1nc(-c2ccc(F)cc2)c(-c2ccncc2)n1C [Example 27, 1-[4-(4-Fluorophenyl)-1-methyl-5-pyridin-4-yl-1H-imidazol-2-ylsulfanyl]-N,N-dimethylacetamide] |  |
|  | 5.42 | 6.85 |  | O=C(O)C(CCO)Sc1nc(-c2ccc(F)cc2)c(-c2ccncc2)[nH]1 (centres unmarked) [Example 24, 5-(4-Fluorophenyl)-4-(4-pyridinyl)imidazole-2-thio-2-butanoic acid-4-ol] |  |
|  |  | 5.84 |  | COC(=O)CCCCSc1nc(-c2ccc(F)cc2)c(-c2ccncc2)[nH]1 [Example 25, Methyl 5-(4-fluorophenyl)-4-(4-pyridinyl)imidazole-2-thio-5-valerate] | 28 |
|  | 5.96 | 6.19 |  | COC(=O)/C=C/CSc1nc(-c2ccc(F)cc2)c(-c2ccncc2)[nH]1 [Example 25b, Methyl 5-(4-fluorophenyl)-4-(4-pyridinyl)imidazole-2-thio-4-crotonate] |  |
|  | 5.42 | 6.72 |  | O=C1OCCC1Sc1nc(-c2ccc(F)cc2)c(-c2ccncc2)[nH]1 (centres unmarked) [Example 23, 5-(4-Fluorophenyl)-4-(4-pyridinyl)imidazole-2-thio-3-butyrolactone] |  |
|  | 6.05 | 6.82 |  | OCC(O)CSc1nc(-c2ccc(F)cc2)c(-c2ccncc2)[nH]1 (centres unmarked) [Example 21, 5-(4-Fluorophenyl)-4-(4-pyridinyl)imidazole-2-thio-1-propane-2,3-diol] |  |
|  | 6.44 | 6.27 |  | CCOC(=O)C(Sc1nc(-c2ccc(F)cc2)c(-c2ccncc2)[nH]1)C(=O)OCC [Example 22, Diethyl 5-(4-fluorophenyl)-4-(4-pyridinyl)imidazole-2-thio-2-malonate] |  |
|  |  | 6.12 |  | COC(=O)CCCSc1nc(-c2ccc(F)cc2)c(-c2ccncc2)[nH]1 [Example 25a, Methyl 5-(4-fluorophenyl)-4-(4-pyridinyl)imidazole-2-thio-4-butyrate] | 38 |
| 6.12 | 5.68 | 6.49 |  | COC(=O)CSc1nc(-c2ccc(F)cc2)c(-c2ccncc2)[nH]1 [Example 25c, Methyl 5-(4-fluorophenyl)-4-(4-pyridinyl)imidazole-2-thio-2-acetate] |  |
